Key:
[1] = molecular target: 5-hydroxytryptamine receptor 2B (Homo sapiens, UniProt P41595); format: functional, cell-based
[2] = molecular target: Histamine H2 receptor (Homo sapiens, UniProt P25021); format: functional, cell-based
[3] = molecular target: Mu-type opioid receptor (Homo sapiens, UniProt P35372); assay: biochemical; format: functional
[4] = molecular target: Muscarinic acetylcholine receptor M3 (Homo sapiens, UniProt P20309)
[5] = molecular target: T1, Alpha-2A adrenergic receptor (Homo sapiens, UniProt P08913); format: functional, cell-based
T1 sequence (P08913 whole entry): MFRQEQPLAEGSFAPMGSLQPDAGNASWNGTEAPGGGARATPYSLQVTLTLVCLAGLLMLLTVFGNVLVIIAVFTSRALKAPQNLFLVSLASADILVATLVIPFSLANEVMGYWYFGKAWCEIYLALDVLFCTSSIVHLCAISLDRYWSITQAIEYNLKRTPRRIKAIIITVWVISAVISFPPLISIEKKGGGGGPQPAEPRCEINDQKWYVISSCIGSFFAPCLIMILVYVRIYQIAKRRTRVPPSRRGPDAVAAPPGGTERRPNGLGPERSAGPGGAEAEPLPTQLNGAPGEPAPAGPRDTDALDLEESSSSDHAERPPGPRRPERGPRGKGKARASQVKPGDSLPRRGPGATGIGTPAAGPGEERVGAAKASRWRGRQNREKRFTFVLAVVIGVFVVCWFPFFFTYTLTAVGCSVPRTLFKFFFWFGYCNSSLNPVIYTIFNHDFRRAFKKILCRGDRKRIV

[6] = molecular target: Growth hormone secretagogue receptor type 1 (Homo sapiens, UniProt Q92847)
[7] = molecular target: D(1A) dopamine receptor (Homo sapiens, UniProt P21728); format: functional, cell-based
[8] = molecular target: T2, 5-hydroxytryptamine receptor 1A (Homo sapiens, UniProt P08908); format: functional, cell-based
T2 sequence (P08908 whole entry): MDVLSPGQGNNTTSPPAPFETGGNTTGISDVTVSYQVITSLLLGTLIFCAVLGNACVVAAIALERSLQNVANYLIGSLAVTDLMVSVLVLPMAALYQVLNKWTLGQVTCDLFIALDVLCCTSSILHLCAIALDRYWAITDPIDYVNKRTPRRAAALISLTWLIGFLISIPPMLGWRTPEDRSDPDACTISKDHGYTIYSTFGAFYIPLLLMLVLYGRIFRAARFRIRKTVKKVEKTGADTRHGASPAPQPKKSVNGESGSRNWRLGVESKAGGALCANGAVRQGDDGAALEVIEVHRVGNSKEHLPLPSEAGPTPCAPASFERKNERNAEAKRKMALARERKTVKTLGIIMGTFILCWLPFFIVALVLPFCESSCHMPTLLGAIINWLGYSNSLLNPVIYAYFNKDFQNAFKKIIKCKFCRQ

[9] = molecular target: T3, Type-1 angiotensin II receptor (Homo sapiens, UniProt P30556)
T3 sequence (P30556 whole entry): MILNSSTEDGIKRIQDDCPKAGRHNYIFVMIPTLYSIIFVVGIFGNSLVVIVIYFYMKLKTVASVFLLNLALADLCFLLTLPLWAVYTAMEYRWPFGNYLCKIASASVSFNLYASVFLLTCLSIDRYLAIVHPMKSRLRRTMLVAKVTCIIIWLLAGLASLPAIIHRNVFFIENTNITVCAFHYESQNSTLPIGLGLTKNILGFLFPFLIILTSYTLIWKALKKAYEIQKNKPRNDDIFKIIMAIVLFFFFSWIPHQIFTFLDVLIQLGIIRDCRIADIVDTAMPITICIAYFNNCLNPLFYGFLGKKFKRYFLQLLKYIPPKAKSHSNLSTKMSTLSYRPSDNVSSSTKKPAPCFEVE

[10] = molecular target: Gamma-aminobutyric acid receptor subunit alpha-1 (Rattus norvegicus, UniProt P62813); format: functional
[11] = molecular target: cGMP-inhibited 3',5'-cyclic phosphodiesterase 3A (Homo sapiens, UniProt Q14432); format: functional
[12] = molecular target: Neuronal acetylcholine receptor subunit alpha-4 (Homo sapiens, UniProt P43681)
[13] = molecular target: Histamine H1 receptor (Homo sapiens, UniProt P35367)
[14] = molecular target: Delta-type opioid receptor (Homo sapiens, UniProt P41143)
[15] = molecular target: Sodium-dependent serotonin transporter (Homo sapiens, UniProt P31645)
[16] = molecular target: T4, Muscarinic acetylcholine receptor M2 (Homo sapiens, UniProt P08172); format: functional, cell-based
T4 sequence (P08172 whole entry): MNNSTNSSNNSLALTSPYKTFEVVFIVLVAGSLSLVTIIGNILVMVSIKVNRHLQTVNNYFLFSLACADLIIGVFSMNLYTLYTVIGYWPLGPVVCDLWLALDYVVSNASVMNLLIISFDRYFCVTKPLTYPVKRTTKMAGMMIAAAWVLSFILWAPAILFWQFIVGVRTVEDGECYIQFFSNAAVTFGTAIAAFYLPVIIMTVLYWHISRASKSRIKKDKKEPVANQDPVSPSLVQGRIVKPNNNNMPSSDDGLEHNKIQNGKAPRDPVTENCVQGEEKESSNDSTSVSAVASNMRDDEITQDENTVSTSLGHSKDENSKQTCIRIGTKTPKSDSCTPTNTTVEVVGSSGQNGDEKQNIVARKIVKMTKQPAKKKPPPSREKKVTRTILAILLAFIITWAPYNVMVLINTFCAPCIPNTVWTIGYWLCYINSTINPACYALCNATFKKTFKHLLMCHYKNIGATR

[17] = molecular target: T5, Gastrin/cholecystokinin type B receptor (Homo sapiens, UniProt P32239)
T5 sequence (P32239 whole entry): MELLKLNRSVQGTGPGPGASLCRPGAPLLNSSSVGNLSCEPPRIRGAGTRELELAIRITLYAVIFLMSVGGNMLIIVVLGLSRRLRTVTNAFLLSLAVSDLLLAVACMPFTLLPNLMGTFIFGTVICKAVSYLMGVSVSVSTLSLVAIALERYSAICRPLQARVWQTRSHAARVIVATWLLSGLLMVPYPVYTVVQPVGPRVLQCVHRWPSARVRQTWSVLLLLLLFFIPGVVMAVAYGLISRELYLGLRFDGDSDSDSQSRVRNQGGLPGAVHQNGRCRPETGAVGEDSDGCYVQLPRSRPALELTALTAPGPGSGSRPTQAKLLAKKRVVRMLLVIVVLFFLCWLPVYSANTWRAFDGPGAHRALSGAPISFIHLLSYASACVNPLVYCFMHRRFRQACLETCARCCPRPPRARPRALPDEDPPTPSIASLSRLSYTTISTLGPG
Note: assay procedure not described here.

Sequence of 5-hydroxytryptamine receptor 2B (P41595 whole entry): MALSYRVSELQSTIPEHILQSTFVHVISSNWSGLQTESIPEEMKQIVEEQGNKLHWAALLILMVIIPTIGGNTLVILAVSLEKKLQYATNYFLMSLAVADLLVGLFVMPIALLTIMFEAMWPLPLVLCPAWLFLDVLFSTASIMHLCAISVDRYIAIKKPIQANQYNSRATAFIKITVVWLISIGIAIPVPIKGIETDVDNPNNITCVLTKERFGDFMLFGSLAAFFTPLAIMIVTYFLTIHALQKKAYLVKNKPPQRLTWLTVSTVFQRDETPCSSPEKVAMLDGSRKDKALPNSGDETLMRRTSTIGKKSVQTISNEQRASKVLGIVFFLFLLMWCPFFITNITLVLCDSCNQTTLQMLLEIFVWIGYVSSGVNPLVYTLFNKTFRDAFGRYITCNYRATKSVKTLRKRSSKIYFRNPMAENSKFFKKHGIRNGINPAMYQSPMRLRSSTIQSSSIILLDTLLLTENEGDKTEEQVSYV
Sequence of Sodium-dependent serotonin transporter (P31645 whole entry): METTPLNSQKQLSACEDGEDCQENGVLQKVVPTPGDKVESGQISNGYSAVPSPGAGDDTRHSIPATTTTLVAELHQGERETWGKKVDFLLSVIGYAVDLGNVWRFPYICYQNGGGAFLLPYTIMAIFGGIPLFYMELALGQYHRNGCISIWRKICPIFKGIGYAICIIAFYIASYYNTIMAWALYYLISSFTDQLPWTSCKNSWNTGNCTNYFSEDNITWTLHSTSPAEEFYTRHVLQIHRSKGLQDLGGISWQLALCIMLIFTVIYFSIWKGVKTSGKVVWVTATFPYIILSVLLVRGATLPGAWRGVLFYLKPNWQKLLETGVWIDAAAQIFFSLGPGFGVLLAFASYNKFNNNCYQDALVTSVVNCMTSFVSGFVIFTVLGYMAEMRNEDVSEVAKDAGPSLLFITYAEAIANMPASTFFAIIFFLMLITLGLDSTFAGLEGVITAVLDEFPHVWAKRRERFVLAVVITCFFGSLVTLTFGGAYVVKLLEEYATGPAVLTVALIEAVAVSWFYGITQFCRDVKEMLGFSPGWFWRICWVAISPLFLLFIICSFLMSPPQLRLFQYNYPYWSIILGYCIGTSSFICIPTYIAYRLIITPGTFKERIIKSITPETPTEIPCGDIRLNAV
Sequence of cGMP-inhibited 3',5'-cyclic phosphodiesterase 3A (Q14432 whole entry): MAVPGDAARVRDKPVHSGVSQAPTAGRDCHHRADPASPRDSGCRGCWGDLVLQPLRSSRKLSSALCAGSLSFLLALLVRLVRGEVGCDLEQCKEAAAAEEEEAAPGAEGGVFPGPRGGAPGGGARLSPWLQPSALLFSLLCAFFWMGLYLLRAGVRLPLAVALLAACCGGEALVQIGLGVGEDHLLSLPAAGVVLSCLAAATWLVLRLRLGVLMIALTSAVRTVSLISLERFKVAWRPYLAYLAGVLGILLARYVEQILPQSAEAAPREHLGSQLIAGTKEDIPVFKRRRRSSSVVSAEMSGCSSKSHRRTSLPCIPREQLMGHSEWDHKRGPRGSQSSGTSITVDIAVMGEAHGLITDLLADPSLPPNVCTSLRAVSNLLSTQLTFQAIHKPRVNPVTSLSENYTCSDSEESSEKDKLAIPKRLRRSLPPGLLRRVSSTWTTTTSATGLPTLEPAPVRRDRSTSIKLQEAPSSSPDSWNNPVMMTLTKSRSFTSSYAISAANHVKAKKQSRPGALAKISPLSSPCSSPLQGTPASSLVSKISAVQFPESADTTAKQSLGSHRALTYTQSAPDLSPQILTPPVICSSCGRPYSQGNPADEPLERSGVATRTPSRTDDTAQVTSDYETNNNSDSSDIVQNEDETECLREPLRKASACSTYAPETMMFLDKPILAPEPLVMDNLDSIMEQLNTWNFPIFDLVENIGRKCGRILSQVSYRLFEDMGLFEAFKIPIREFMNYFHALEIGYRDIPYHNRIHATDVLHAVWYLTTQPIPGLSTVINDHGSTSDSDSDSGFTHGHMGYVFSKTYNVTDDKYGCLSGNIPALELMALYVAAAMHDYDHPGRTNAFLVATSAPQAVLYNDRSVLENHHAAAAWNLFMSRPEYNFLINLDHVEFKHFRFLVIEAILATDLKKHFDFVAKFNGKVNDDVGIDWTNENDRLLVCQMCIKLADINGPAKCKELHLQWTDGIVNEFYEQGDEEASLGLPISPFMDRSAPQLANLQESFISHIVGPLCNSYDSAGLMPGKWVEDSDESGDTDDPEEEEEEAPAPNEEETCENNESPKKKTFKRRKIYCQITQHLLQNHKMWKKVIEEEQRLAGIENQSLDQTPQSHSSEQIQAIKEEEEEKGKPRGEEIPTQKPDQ
Sequence of D(1A) dopamine receptor (P21728 whole entry): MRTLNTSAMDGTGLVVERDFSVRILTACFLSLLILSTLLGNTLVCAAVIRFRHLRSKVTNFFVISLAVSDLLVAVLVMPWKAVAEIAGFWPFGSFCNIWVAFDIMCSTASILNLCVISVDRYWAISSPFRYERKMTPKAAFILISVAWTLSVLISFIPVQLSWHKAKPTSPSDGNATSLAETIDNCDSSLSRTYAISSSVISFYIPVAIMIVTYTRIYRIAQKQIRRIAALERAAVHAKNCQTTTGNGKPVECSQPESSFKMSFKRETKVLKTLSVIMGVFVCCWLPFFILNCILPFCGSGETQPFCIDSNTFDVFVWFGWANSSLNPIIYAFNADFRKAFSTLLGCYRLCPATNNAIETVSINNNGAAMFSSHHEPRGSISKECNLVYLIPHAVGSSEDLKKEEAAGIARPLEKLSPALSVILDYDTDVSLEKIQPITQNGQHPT
Sequence of Neuronal acetylcholine receptor subunit alpha-4 (P43681 whole entry): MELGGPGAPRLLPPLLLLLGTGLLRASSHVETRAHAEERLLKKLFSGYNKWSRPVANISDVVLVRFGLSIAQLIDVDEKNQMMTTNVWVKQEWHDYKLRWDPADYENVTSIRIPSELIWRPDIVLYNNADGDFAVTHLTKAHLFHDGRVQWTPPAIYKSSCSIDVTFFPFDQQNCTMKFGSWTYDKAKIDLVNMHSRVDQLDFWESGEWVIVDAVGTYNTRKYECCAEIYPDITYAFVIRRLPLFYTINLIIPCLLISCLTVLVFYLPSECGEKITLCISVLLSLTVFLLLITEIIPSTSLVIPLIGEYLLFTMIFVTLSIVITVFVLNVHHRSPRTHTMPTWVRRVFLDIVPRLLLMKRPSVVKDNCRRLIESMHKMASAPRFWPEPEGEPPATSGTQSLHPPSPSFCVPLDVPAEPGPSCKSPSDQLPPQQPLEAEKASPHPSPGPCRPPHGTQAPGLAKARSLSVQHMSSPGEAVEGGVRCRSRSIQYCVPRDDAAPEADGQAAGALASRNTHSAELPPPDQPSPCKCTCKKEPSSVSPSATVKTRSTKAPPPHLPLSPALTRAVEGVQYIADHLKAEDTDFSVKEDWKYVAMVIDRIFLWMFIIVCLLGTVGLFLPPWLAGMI
Sequence of Delta-type opioid receptor (P41143 whole entry): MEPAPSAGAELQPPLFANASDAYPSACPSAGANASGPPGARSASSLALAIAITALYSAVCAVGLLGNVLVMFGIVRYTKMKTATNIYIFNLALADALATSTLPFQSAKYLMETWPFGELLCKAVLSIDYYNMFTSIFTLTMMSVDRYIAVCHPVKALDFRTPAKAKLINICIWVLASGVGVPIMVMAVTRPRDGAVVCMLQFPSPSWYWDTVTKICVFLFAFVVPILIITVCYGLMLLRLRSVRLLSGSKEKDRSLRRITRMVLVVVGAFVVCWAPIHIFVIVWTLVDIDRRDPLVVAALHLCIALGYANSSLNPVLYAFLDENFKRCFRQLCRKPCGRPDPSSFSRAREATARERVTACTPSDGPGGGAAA
Sequence of Gamma-aminobutyric acid receptor subunit alpha-1 (P62813 whole entry): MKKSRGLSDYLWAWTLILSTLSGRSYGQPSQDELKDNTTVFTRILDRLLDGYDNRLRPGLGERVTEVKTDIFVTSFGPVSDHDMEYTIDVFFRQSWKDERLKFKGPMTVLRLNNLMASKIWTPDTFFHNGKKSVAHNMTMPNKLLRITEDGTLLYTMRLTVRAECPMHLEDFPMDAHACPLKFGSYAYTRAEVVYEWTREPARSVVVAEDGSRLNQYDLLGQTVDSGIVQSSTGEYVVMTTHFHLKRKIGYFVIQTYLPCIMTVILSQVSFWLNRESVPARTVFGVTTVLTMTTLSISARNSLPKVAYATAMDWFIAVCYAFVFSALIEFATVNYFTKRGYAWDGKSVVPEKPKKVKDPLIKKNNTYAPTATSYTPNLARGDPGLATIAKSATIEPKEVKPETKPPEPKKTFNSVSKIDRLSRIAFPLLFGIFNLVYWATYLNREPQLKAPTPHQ
Sequence of Histamine H1 receptor (P35367 whole entry): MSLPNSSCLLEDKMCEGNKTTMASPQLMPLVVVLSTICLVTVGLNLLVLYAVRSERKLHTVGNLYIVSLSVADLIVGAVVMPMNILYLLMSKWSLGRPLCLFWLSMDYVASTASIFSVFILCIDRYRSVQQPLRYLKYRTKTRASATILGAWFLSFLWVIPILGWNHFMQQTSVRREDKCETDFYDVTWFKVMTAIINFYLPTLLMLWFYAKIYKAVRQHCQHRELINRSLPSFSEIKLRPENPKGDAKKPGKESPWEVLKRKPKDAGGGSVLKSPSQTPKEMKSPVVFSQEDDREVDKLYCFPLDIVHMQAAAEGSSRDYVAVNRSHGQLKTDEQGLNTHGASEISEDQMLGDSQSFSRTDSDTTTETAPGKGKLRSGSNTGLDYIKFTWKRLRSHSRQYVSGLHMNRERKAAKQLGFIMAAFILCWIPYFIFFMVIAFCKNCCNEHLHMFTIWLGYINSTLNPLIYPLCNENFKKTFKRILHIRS
Sequence of Histamine H2 receptor (P25021 whole entry): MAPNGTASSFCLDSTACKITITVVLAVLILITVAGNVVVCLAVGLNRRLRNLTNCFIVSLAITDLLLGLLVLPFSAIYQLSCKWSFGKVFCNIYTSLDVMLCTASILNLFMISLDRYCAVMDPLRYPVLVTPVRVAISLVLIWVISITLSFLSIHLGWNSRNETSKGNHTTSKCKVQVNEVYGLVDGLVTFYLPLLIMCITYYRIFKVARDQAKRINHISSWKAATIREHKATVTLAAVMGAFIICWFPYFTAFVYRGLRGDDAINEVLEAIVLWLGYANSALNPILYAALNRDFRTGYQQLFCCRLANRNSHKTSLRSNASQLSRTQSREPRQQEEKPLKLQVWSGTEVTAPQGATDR

## CCOC(=O)[C@H](CCc1ccccc1)N[C@@H](C)C(=O)N1C(=O)N(C)C[C@H]1C(=O)O
[1]
  AC50: > 30 µM
[2]
  AC50: > 30 µM
[3]
  AC50: > 30 µM
[4]
  AC50: > 30 µM
[5]
  AC50: > 30 µM
[6]
  AC50: > 30 µM
[7]
  AC50: > 30 µM
[8]
  AC50: > 30 µM
[9]
  AC50: > 30 µM
[10]
  AC50: > 30 µM
[11]
  AC50: > 30 µM
[12]
  AC50: > 30 µM
[13]
  AC50: > 30 µM
[14]
  AC50: > 30 µM
[15]
  AC50: > 30 µM
[16]
  AC50: > 30 µM
[17]
  AC50: > 30 µM

## NCC(=O)CCC(=O)O [AMINOLEVULINIC ACID]
[1]
  AC50: > 30 µM
[2]
  AC50: > 30 µM
[3]
  AC50: > 30 µM
[4]
  AC50: > 30 µM
[5]
  AC50: > 30 µM
[6]
  AC50: > 30 µM
[7]
  AC50: > 30 µM
[8]
  AC50: > 30 µM
[9]
  AC50: > 30 µM
[10]
  AC50: > 30 µM
[11]
  AC50: > 30 µM
[12]
  AC50: > 30 µM
[13]
  AC50: > 30 µM
[14]
  AC50: > 30 µM
[15]
  AC50: > 30 µM
[16]
  AC50: > 30 µM
[17]
  AC50: > 30 µM

## CC(CC(c1ccccc1)c1ccccc1)NC(C)(C)C (stereo not drawn) [TERODILINE]
[1]
  AC50: > 30 µM
[2]
  AC50: > 30 µM
[3]
  AC50: > 30 µM
[4]
  AC50: 1.1 µM
[5]
  AC50: > 30 µM
[6]
  AC50: > 30 µM
[7]
  AC50: > 30 µM
[8]
  AC50: > 30 µM
[9]
  AC50: > 30 µM
[10]
  AC50: > 30 µM
[11]
  AC50: > 30 µM
[12]
  AC50: > 30 µM
[13]
  AC50: 0.76 µM
[14]
  AC50: > 30 µM
[15]
  AC50: > 30 µM
[16]
  AC50: 3.1 µM
[17]
  AC50: > 30 µM

## Cc1cc(O)c(C(=O)N[C@@H](C(=O)N[C@@H]2C(=O)N3C(C(=O)O)=C(CSc4nnnn4C)CS[C@H]23)c2ccc(O)cc2)cn1 [CEFPIRAMIDE]
[1]
  AC50: > 30 µM
[2]
  AC50: > 30 µM
[3]
  AC50: > 30 µM
[4]
  AC50: > 30 µM
[5]
  AC50: > 30 µM
[6]
  AC50: > 30 µM
[7]
  AC50: > 30 µM
[8]
  AC50: > 30 µM
[9]
  AC50: > 30 µM
[10]
  AC50: > 30 µM
[11]
  AC50: > 30 µM
[12]
  AC50: > 30 µM
[13]
  AC50: > 30 µM
[14]
  AC50: > 30 µM
[15]
  AC50: > 30 µM
[16]
  AC50: > 30 µM
[17]
  AC50: > 30 µM

## O=C(O)CCCCCCNC1c2ccccc2CCc2ccccc21 [AMINEPTINE]
[1]
  AC50: > 30 µM
[2]
  AC50: > 30 µM
[3]
  AC50: > 30 µM
[4]
  AC50: > 30 µM
[5]
  AC50: > 30 µM
[6]
  AC50: > 30 µM
[7]
  AC50: > 30 µM
[8]
  AC50: > 30 µM
[9]
  AC50: > 30 µM
[10]
  AC50: > 30 µM
[11]
  AC50: > 30 µM
[12]
  AC50: > 30 µM
[13]
  AC50: > 30 µM
[14]
  AC50: > 30 µM
[15]
  AC50: > 30 µM
[16]
  AC50: > 30 µM
[17]
  AC50: > 30 µM

## O=C(NCCNCC(O)COc1ccc(O)cc1)N1CCOCC1 (stereo not drawn) [XAMOTEROL]
[1]
  AC50: > 30 µM
[2]
  AC50: > 30 µM
[3]
  AC50: > 30 µM
[4]
  AC50: > 30 µM
[5]
  AC50: > 30 µM
[6]
  AC50: > 30 µM
[7]
  AC50: > 30 µM
[8]
  AC50: > 30 µM
[9]
  AC50: > 30 µM
[10]
  AC50: > 30 µM
[11]
  AC50: > 30 µM
[12]
  AC50: > 30 µM
[13]
  AC50: > 30 µM
[14]
  AC50: > 30 µM
[15]
  AC50: > 30 µM
[16]
  AC50: > 30 µM
[17]
  AC50: > 30 µM

## CCC1(CC)C(=O)NCC(C)C1=O (stereo not drawn) [METHYPRYLON]
[1]
  AC50: > 30 µM
[2]
  AC50: > 30 µM
[3]
  AC50: > 30 µM
[4]
  AC50: > 30 µM
[5]
  AC50: > 30 µM
[6]
  AC50: > 30 µM
[7]
  AC50: > 30 µM
[8]
  AC50: > 30 µM
[9]
  AC50: > 30 µM
[10]
  AC50: > 30 µM
[11]
  AC50: > 30 µM
[12]
  AC50: > 30 µM
[13]
  AC50: > 30 µM
[14]
  AC50: > 30 µM
[15]
  AC50: > 30 µM
[16]
  AC50: > 30 µM
[17]
  AC50: > 30 µM

## CCN1CCN(C(=O)N[C@@H](C(=O)N[C@@H]2C(=O)N3C(C(=O)O)=C(CSc4nnnn4C)CS[C@H]23)c2ccc(O)cc2)C(=O)C1=O [CEFOPERAZONE]
[1]
  AC50: > 30 µM
[2]
  AC50: > 30 µM
[3]
  AC50: > 30 µM
[4]
  AC50: > 30 µM
[5]
  AC50: > 30 µM
[6]
  AC50: > 30 µM
[7]
  AC50: > 30 µM
[8]
  AC50: > 30 µM
[9]
  AC50: > 30 µM
[10]
  AC50: > 30 µM
[11]
  AC50: 9.5 µM
[12]
  AC50: > 30 µM
[13]
  AC50: > 30 µM
[14]
  AC50: > 30 µM
[15]
  AC50: > 30 µM
[16]
  AC50: > 30 µM
[17]
  AC50: > 30 µM

## CCN(CC)C(=O)N[C@H]1C[C@@H]2c3cccc4[nH]cc(c34)C[C@H]2N(C)C1 [TERGURIDE]
[1]
  AC50: > 30 µM
[2]
  AC50: 15 µM
[3]
  AC50: > 30 µM
[4]
  AC50: > 30 µM
[5]
  AC50: 0.018 µM
[6]
  AC50: > 30 µM
[7]
  AC50: 0.049 µM
[8]
  AC50: 0.18 µM
[9]
  AC50: > 30 µM
[10]
  AC50: > 30 µM
[11]
  AC50: > 30 µM
[12]
  AC50: > 30 µM
[13]
  AC50: 2.1 µM
[14]
  AC50: > 30 µM
[15]
  AC50: > 30 µM
[16]
  AC50: > 30 µM
[17]
  AC50: > 30 µM
